# Source: patent US11724997B2, “Compounds and compositions for treating conditions associated with APJ receptor activity” (Annapurna Bio, Inc., priority 2018, dated 2023)
# Target: T1, APJ Receptor (Homo sapiens, UniProt P35414)
# T1 sequence (P35414 1-380): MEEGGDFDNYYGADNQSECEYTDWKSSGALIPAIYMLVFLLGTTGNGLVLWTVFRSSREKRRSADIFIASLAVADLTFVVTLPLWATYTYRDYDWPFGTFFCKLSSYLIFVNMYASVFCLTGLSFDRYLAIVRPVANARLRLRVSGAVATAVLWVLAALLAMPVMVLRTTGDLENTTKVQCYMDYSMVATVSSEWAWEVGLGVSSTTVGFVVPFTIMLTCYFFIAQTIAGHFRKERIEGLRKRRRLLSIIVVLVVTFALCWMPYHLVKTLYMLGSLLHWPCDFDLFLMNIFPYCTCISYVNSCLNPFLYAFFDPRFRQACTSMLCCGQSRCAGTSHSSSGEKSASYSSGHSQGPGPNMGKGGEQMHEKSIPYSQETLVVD
# Assay: APJ cAMP assay: inhibition of forskolin-stimulated cAMP, enzyme fragment complementation, in CHO-K1 cells stably expressing the APJ Receptor
# Format: cell-based
# Conditions: CHO-K1 cell line (DiscoverX) stably expressing APJ Receptor; EC80 forskolin; 30 minutes at 37° C.; read-out: APJ cAMP EC50 Potency range
# Description: Activation of APJ receptor is known to inhibit forskolin-stimulated cyclic AMP (cAMP) production in cells in a pertussis toxin-sensitive manner which indicates primary coupling to the GαI subunit of the G protein heterotrimeric complex. In addition to signaling through G protein and inhibition of cAMP, APJ receptor activation also results in β-arrestin recruitment, receptor internalization and activation of extracellular-regulated kinases (ERKs).
# In order to optimize functional activity directed toward Gi coupling we utilized a CHO-K1 cell line developed by DiscoverX stably expressing the APJ Receptor. Cells expressing APJR receptor were plated in a 384-well microtiter plates and incubated overnight at 37° C. with 5% CO2 to allow the cells to attach and grow. Media was then aspirated from the cells and replaced with 15 uL 2:1 Hanks Balanced Salt Solution (HBSS)/10 mM Hepes. cAMP XS+ Ab reagent. Five microliters (5 uL) of previously generated compound sample stocks at 4× final concentration in assay buffer containing 4×EC80 forskolin were then added to the cells and allowed to incubate at 37° C. for 30 minutes.
# After incubation the assay signal was generated using a technology termed enzyme fragment complementation (EFC). In EFC the enzyme B-galactosidase is split into two complementary portions (EA and ED). The fragment ED is fused to cAMP and in the assay format competes with endogenous cAMP for binding to a cAMP specific antibody. Activated B-Gal is formed when exogenous EA fragment binds to free ED-cAMP (not bound to cAMP specific antibody). Activated enzyme levels are detected through conversion of B-gal chemiluminescent substrate which generates a detectable luminescence signal and read on standard microtiter plate.
# The methodology for detection of cAMP using EFC requires incubation with 20 uL of cAMP XS+ ED/CL lysis cocktail for one hour followed by incubation with 20 uL cAMP XS+ EA reagent for three hours at room temperature. Microplates were read following signal generation with a PerkinElmer Envision instrument utilizing chemiluminescent signal detection.
# Compound activity was analyzed using CBIS data analysis suite (ChemInnovation, CA).
# Percentage activity was calculated using the following formula: % Activity=[…]×(1−(mean RLU of test sample−mean RLU of Max control)/(mean RLU of vehicle control−mean RLU of Max control))
# The biological activity of the exemplified compounds of this invention determined by the assay described above is shown in Table 1. The APJ cAMP EC50 potency ranges are as follows: A: EC50<1 nM; B: 1≤EC50<100 nM; and C: 100≤EC50<10,000 nM.
row,EC50,Compound
1,1 to 100 nM,"COc1cccc(-c2nnc(C(=O)NS(=O)(=O)[C@@H](C)c3ccccc3)n2-c2c(OC)cccc2OC)n1 (single isomer, unassigned) [Example 32]"
2,1 to 100 nM,"COc1cccc(-c2nnc(C(=O)NS(=O)(=O)[C@H](C)c3ccccc3)n2-c2c(OC)cccc2OC)n1 (single isomer, unassigned) [Example 33]"
3,< 1 nM,"CCOc1cccc(-c2nnc(C(=O)NS(=O)(=O)[C@@H](C)c3ccccc3)n2-c2c(OC)cccc2OC)n1 (single isomer, unassigned) [Example 39]"
4,< 1 nM,"CCOc1cccc(-c2nnc(C(=O)NS(=O)(=O)[C@H](C)c3ccccc3)n2-c2c(OC)cccc2OC)n1 (single isomer, unassigned) [Example 40]"
5,< 1 nM,"CCOc1cccc(-c2nnc(C(=O)NS(=O)(=O)C[C@@H](C)c3ccccc3)n2-c2c(OC)cccc2OC)n1 (single isomer, unassigned) [Example 45]"
6,< 1 nM,"CCOc1cccc(-c2nnc(C(=O)NS(=O)(=O)C[C@H](C)c3ccccc3)n2-c2c(OC)cccc2OC)n1 (single isomer, unassigned) [Example 46]"
7,< 1 nM,"CCOc1cccc(-c2nnc(C(=O)NS(=O)(=O)[C@H]3CCc4ccccc4C3)n2-c2c(OC)cccc2OC)n1 (single isomer, unassigned) [Example 47]"
8,< 1 nM,"CCOc1cccc(-c2nnc(C(=O)NS(=O)(=O)[C@@H]3CCc4ccccc4C3)n2-c2c(OC)cccc2OC)n1 (single isomer, unassigned) [Example 48]"
9,< 1 nM,"CCOc1cccc(-c2nnc(C(=O)NS(=O)(=O)c3ccccc3)n2-c2c(OC)cccc2OC)n1 [Example 1, 4-(2,6-dimethoxyphenyl)-5-(6-ethoxypyridin-2-yl)-N-(phenylsulfonyl)-4H-1,2,4-triazole-3-carboxamide]"
10,< 1 nM,"CCOc1cccc(-c2nnc(C(=O)NS(=O)(=O)Cc3ccccc3)n2-c2c(OC)cccc2OC)n1 [Example 2, N-(benzylsulfonyl)-4-(2,6-dimethoxyphenyl)-5-(6-ethoxypyridin-2-yl)-4H-1,2,4-triazole-3-carboxamide]"
11,< 1 nM,"CCOc1cccc(-c2nnc(C(=O)NS(=O)(=O)CCc3ccccc3)n2-c2c(OC)cccc2OC)n1 [Example 3, 4-(2,6-dimethoxyphenyl)-5-(6-ethoxypyridin-2-yl)-N-(phenethylsulfonyl)-4H-1,2,4-triazole-3-carboxamide]"
12,1 to 100 nM,"COc1cccc(OC)c1-n1c(C(=O)NS(=O)(=O)Cc2ccccc2)nnc1-c1ccn(C)n1 [Example 4, N-(benzylsulfonyl)-4-(2,6-dimethoxyphenyl)-5-(1-methyl-1H-pyrazol-3-yl)-4H-1,2,4-triazole-3-carboxamide]"
13,1 to 100 nM,"CCn1ccc(-c2nnc(C(=O)NS(=O)(=O)Cc3ccccc3)n2-c2c(OC)cccc2OC)n1 [Example 5, N-(benzylsulfonyl)-4-(2,6-dimethoxyphenyl)-5-(1-ethyl-1H-pyrazol-3-yl)-4H-1,2,4-triazole-3-carboxamide]"
14,1 to 100 nM,"COc1nc(-c2nnc(C(=O)NS(=O)(=O)Cc3ccccc3)n2-c2c(OC)cccc2OC)cs1 [Example 6, N-(benzylsulfonyl)-4-(2,6-dimethoxyphenyl)-5-(2-methoxythiazol-4-yl)-4H-1,2,4-triazole-3-carboxamide]"
15,100 to 10000 nM,"CCOCc1nnc(C(=O)NS(=O)(=O)Cc2ccccc2)n1-c1c(OC)cccc1OC [Example 7, N-(benzylsulfonyl)-4-(2,6-dimethoxyphenyl)-5-(ethoxymethyl)-4H-1,2,4-triazole-3-carboxamide]"
16,1 to 100 nM,"CCOc1cccc(-c2nnc(C(=O)N(C)S(=O)(=O)Cc3ccccc3)n2-c2c(OC)cccc2OC)n1 [Example 8, N-(benzylsulfonyl)-4-(2,6-dimethoxyphenyl)-5-(6-ethoxypyridin-2-yl)-N-methyl-4H-1,2,4-triazole-3-carboxamide]"
17,1 to 100 nM,"CCOc1cccc(-c2nnc(C(=O)NS(C)(=O)=O)n2-c2c(OC)cccc2OC)n1 [Example 9, 4-(2,6-Dimethoxyphenyl)-5-(6-ethoxypyridin-2-yl)-N-(methylsulfonyl)-4H-1,2,4-triazole-3-carboxamide]"
18,100 to 10000 nM,"COc1ccn(-c2nnc(C(=O)NS(=O)(=O)Cc3ccccc3)n2-c2c(OC)cccc2OC)n1 [Example 10, N-(enzylsulfonyl)-4-(2,6-dimethoxyphenyl)-5-(3-methoxy-1H-pyrazol-1-yl)-4H-1,2,4-triazole-3-carboxamide]"
19,100 to 10000 nM,"COc1cccc(OC)c1-n1c(C(=O)NS(=O)(=O)Cc2ccccc2)nnc1-c1cc(C2CC2)no1 [Example 11, N-(benzylsulfonyl)-5-(3-cyclopropylisoxazol-5-yl)-4-(2,6-dimethoxyphenyl)-4H-1,2,4-triazole-3-carboxamide]"
20,100 to 10000 nM,"COc1cccc(OC)c1-n1c(C(=O)NS(=O)(=O)Cc2ccccc2)nnc1-c1ncc(C)c(OC)n1 [Example 12, N-(benzylsulfonyl)-4-(2,6-dimethoxyphenyl)-5-(4-methoxy-5-methylpyrimidin-2-yl)-4H-1,2,4-triazole-3-carboxamide]"
21,1 to 100 nM,"COc1cccc(-c2nnc(C(=O)NS(=O)(=O)Cc3ccccc3)n2-c2c(OC)cccc2OC)n1 [Example 13, N-(benzylsulfonyl)-4-(2,6-dimethoxyphenyl)-5-(6-methoxypyridin-2-yl)-4H-1,2,4-triazole-3-carboxamide]"
22,1 to 100 nM,"COc1cccc(OC)c1-n1c(C(=O)NS(=O)(=O)Cc2ccccc2)nnc1-c1cccc(C)n1 [Example 14, N-(benzylsulfonyl)-4-(2,6-dimethoxyphenyl)-5-(6-methylpyridin-2-yl)-4H-1,2,4-triazole-3-carboxamide]"
23,1 to 100 nM,"COc1cccc(OC)c1-n1c(C(=O)NS(=O)(=O)Cc2ccccc2)nnc1-c1ccc(C)cn1 [Example 15, N-(benzylsulfonyl)-4-(2,6-dimethoxyphenyl)-5-(5-methylpyridin-2-yl)-4H-1,2,4-triazole-3-carboxamide]"
24,1 to 100 nM,"COc1cccc(OC)c1-n1c(C(=O)NS(=O)(=O)Cc2ccccc2)nnc1-c1ccc(C)o1 [Example 16, N-(benzylsulfonyl)-4-(2,6-dimethoxyphenyl)-5-(5-methylfuran-2-yl)-4H-1,2,4-triazole-3-carboxamide]"
25,< 1 nM,"COc1cccc(OC)c1-n1c(C(=O)NS(=O)(=O)Cc2ncccn2)nnc1-c1ccc(C)o1 [Example 17, 4-(2,6-Dimethoxyphenyl)-5-(5-methylfuran-2-yl)-N-((pyrimidin-2-ylmethyl)sulfonyl)-4H-1,2,4-triazole-3-carboxamide]"
26,< 1 nM,"COc1cccc(OC)c1-n1c(C(=O)NS(=O)(=O)Cc2ccccc2)nnc1-c1cccc(OC2CC2)n1 [Example 19, N-(benzylsulfonyl)-5-(6-cyclopropoxypyridin-2-yl)-4-(2,6-dimethoxyphenyl)-4H-1,2,4-triazole-3-carboxamide]"
27,< 1 nM,"COc1cccc(OC)c1-n1c(C(=O)NS(=O)(=O)Cc2ncccn2)nnc1-c1cccc(OC2CC2)n1 [Example 20, 5-(6-Cyclopropoxypyridin-2-yl)-4-(2,6-dimethoxyphenyl)-N-((pyrimidin-2-ylmethyl)sulfonyl)-4H-1,2,4-triazole-3-carboxamide]"

row,Compound,EC50
1,"COc1cccc(OC)c1-n1c(C(=O)NS(=O)(=O)Cc2ccccc2)nnc1-c1cccc(OC2CCC2)n1 [Example 18, N-(benzylsulfonyl)-5-(6-cyclobutoxypyridin-2-yl)-4-(2,6-dimethoxyphenyl)-4H-1,2,4-triazole-3-carboxamide]",1 to 100 nM
